Measurements: patent publication US10689398B2, “OXA-Diazaspiro compounds having activity against pain” (ESTEVE PHARMACEUTICALS, S.A., priority 2015, dated 2020)

Molecular target: human σ1 receptor (Homo sapiens (Human), UniProt Q99720)
Experiment: Human σ1 receptor radioligand assay
Type: binding
Details: transfected HEK-293 membranes, [3H](+)-pentazocine radioligand
Procedure: Human σ1 Receptor Radioligand Assay
To investigate binding properties of test compounds to human σ1 receptor, transfected HEK-293 membranes and [^3H](+)-pentazocine (Perkin Elmer, NET-1056), as the radioligand, were used. The assay was carried out with 7 μg of membrane suspension, 5 nM of [^3H](+)-pentazocine in either absence or presence of either buffer or 10 μM Haloperidol for total and non-specific binding, respectively. Binding buffer contained Tris-HCl 50 mM at pH 8. Plates were incubated at 37° C. for 120 minutes. After the incubation period, the reaction mix was then transferred to MultiScreen HTS, FC plates (Millipore), filtered and plates were washed 3 times with ice-cold 10 mM Tris-HCL (pH7.4). Filters were dried and counted at approximately 40% efficiency in a MicroBeta scintillation counter (Perkin-Elmer) using EcoScint liquid scintillation cocktail

Chain of human σ1 receptor (Q99720 whole entry): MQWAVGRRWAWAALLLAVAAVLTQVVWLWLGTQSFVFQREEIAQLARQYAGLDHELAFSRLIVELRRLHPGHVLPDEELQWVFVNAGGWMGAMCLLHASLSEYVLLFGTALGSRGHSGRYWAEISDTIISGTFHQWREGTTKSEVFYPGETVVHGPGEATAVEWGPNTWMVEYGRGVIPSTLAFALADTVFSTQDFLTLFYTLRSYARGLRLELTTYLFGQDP

## CCN1CC2(CCCN(CC(C)C)CC2)OC(C)(C)C1=O (stereo not drawn) [Example 32, 4-ethyl-9-isobutyl-2,2-dimethyl-1-oxa-4,9-diazaspiro[5.6]dodecan-3-one]
  Ki: < 500 nM

## CC(C)CN1CC2(C1)CN(C(C)C)C(=O)[C@H](C)O2 [Example 43, (S)-2-isobutyl-8-isopropyl-6-methyl-5-oxa-2,8-diazaspiro[3.5]nonan-7-one]
  Ki: ≥ 500 nM

## CC(C)CCN1CCCC2(C1)CN(C(=O)c1ccccc1)CC1(CC1)O2 (stereo not drawn) [Example 25, (7-isopentyl-4-oxa-7,12-diazadispiro[2.1.5.3]tridecan-12-yl)(phenyl)methanone]
  Ki: < 500 nM

## CC(C)CCN1CCCC2(C1)CN(c1ccccc1)C(=O)C1(CC1)O2 (stereo not drawn) [Example 8, 7-isopentyl-12-phenyl-4-oxa-7,12-diazadispiro[2.1.5.3]tridecan-13-one]
  Ki: < 500 nM

## c1ccc(CCN2CCCC3(C2)CN(Cc2ccccc2)CC2(CC2)O3)cc1 (stereo not drawn) [Example 79, 12-benzyl-7-phenethyl-4-oxa-7,12-diazadispiro[2.1.5.3]tridecane]
  Ki: < 100 nM

## CC(C)CCN1CC2(C1)CN(C(C)C)C(=O)[C@@H](C)O2 [Example 40, (R)-2-isopentyl-8-isopropyl-6-methyl-5-oxa-2,8-diazaspiro[3.5]nonan-7-one]
  Ki: ≥ 500 nM

## CCN1C[C@]2(CCCN(Cc3ccccc3)CC2)O[C@H](C)C1=O [Example 60, (2R,6R)-9-benzyl-4-ethyl-2-methyl-1-oxa-4,9-diazaspiro[5.6]dodecan-3-one]
  Ki: ≥ 500 nM

## c1ccc(CN2CCCC3(CC2)CN(Cc2ccccc2)CC2(CC2)O3)cc1 (stereo not drawn) [Example 82, 8,13-dibenzyl-4-oxa-8,13-diazadispiro[2.1.6.3]tetradecane]
  Ki: < 100 nM

## O=C(c1ccccc1)N1CC2(CC2)OC2(CCCN(Cc3ccccc3)C2)C1 (stereo not drawn) [Example 55, (7-benzyl-4-oxa-7,12-diazadispiro[2.1.5.3]tridecan-12-yl)(phenyl)methanone]
  Ki: ≥ 500 nM

## CCN1CC2(CC2)OC2(CCCN(Cc3ccccc3)C2)C1 (stereo not drawn) [Example 17, 7-benzyl-12-ethyl-4-oxa-7,12-diazadispiro[2.1.5.3]tridecane]
  Ki: ≥ 500 nM

## c1ccc(CCN2CC3(CN(Cc4ccccc4)CC4(CC4)O3)C2)cc1 [Example 90, 10-benzyl-7-phenethyl-4-oxa-7,10-diazadispiro[2.1.3.3]undecane]
  Ki: < 100 nM

## CCN1CC2(CCCN(Cc3ccccc3)CC2)OC(C)(C)C1=O (stereo not drawn) [Example 57, 9-benzyl-4-ethyl-2,2-dimethyl-1-oxa-4,9-diazaspiro[5.6]dodecan-3-one]
  Ki: < 100 nM

## CC(C)CCN1CCCC2(C1)CN(Cc1ccccc1)CC1(CC1)O2 (stereo not drawn) [Example 80, 12-benzyl-7-isopentyl-4-oxa-7,12-diazadispiro[2.1.5.3]tridecane]
  Ki: < 100 nM

## CC1(C)CN(C(=O)c2ccccc2)C[C@]2(CCCN(CCc3ccccc3)CC2)O1 [Example 94, (R)-(2,2-dimethyl-9-phenethyl-1-oxa-4,9-diazaspiro[5.6]dodecan-4-yl)(phenyl)methanone]
  Ki: < 500 nM

## c1ccc(CCN2CCCC3(C2)CN(c2ccccc2)CC2(CC2)O3)cc1 (stereo not drawn) [Example 19, 7-phenethyl-12-phenyl-4-oxa-7,12-diazadispiro[2.1.5.3]tridecane]
  Ki: < 100 nM

## CCN1C[C@@]2(CCCN(Cc3ccc(F)cc3)CC2)O[C@@H](C)C1=O [Example 65, (2S,6S)-4-ethyl-9-(4-fluorobenzyl)-2-methyl-1-oxa-4,9-diazaspiro[5.6]dodecan-3-one]
  Ki: ≥ 500 nM

## CC(C)OCCN1CCCC2(CC1)CN(C(=O)c1ccccc1)CC(C)(C)O2 (stereo not drawn) [Example 50, (9-(2-isopropoxyethyl)-2,2-dimethyl-1-oxa-4,9-diazaspiro[5.6]dodecan-4-yl)(phenyl)methanone]
  Ki: ≥ 500 nM

## CCN1CC2(CCCN(CCC(C)C)C2)OC2(CC2)C1=O (stereo not drawn) [Example 1, 12-Ethyl-7-isopentyl-4-oxa-7,12-diazadispiro[2.1.5.3]tridecan-13-one]
  Ki: ≥ 500 nM

## CCN1C[C@]2(CCCN(Cc3ccc(C#N)cc3)CC2)O[C@H](C)C1=O [Example 68, 4-(((2R,6R)-4-ethyl-2-methyl-3-oxo-1-oxa-4,9-diazaspiro[5.6]dodecan-9-yl)methyl)benzonitrile]
  Ki: ≥ 500 nM

## CC(C)CN1CC2(C1)CN(C(C)C)C(=O)[C@@H](C)O2 [Example 42, (R)-2-isobutyl-8-isopropyl-6-methyl-5-oxa-2,8-diazaspiro[3.5]nonan-7-one]
  Ki: ≥ 500 nM

## CCN1C[C@]2(CCCN(Cc3ccccc3)CC2)O[C@@H](C)C1=O [Example 62, (2S,6R)-9-benzyl-4-ethyl-2-methyl-1-oxa-4,9-diazaspiro[5.6]dodecan-3-one]
  Ki: ≥ 500 nM

## O=C1N(Cc2ccccc2)CC2(CN(CCc3ccccc3)C2)OC12CC2 [Example 33, 10-benzyl-7-phenethyl-4-oxa-7,10-diazadispiro[2.1.3.3]undecan-11-one]
  Ki: < 100 nM

## CC1(C)CN(C(=O)c2ccccc2)C[C@@]2(CCCN(CCc3ccccc3)CC2)O1 [Example 95, (S)-(2,2-dimethyl-9-phenethyl-1-oxa-4,9-diazaspiro[5.6]dodecan-4-yl)(phenyl)methanone]
  Ki: < 500 nM

## CCN1C[C@]2(CCCN(Cc3ccc(C#N)cc3)CC2)O[C@@H](C)C1=O [Example 70, 4-(((2S,6R)-4-ethyl-2-methyl-3-oxo-1-oxa-4,9-diazaspiro[5.6]dodecan-9-yl)methyl)benzonitrile]
  Ki: ≥ 500 nM

## CN1CC2(CCCN(Cc3ccc(C#N)cc3)CC2)OC2(CC2)C1=O (stereo not drawn) [Example 73, 4-((13-methyl-14-oxo-4-oxa-8,13-diazadispiro[2.1.6.3]tetradecan-8-yl)methyl)benzonitrile]
  Ki: ≥ 500 nM

## CCN1CC2(CN(CC(C)(C)C)C2)O[C@@H](C)C1=O [Example 74, (S)-8-ethyl-6-methyl-2-neopentyl-5-oxa-2,8-diazaspiro[3.5]nonan-7-one]
  Ki: ≥ 500 nM

## O=C1N(c2ccccc2)CC2(CCCN(CCc3ccccc3)C2)OC12CC2 (stereo not drawn) [Example 7, 7-phenethyl-12-phenyl-4-oxa-7,12-diazadispiro[2.1.5.3]tridecan-13-one]
  Ki: < 500 nM

## CC(C)CN1CCCC2(C1)CN(C(=O)c1ccccc1)CC1(CC1)O2 (stereo not drawn) [Example 26, (7-isobutyl-4-oxa-7,12-diazadispiro[2.1.5.3]tridecan-12-yl)(phenyl)methanone]
  Ki: ≥ 500 nM

## CCN1CC2(CN(CCOC(C)C)C2)OC2(CC2)C1=O [Example 35, 10-ethyl-7-(2-isopropoxyethyl)-4-oxa-7,10-diazadispiro[2.1.3.3]undecan-11-one]
  Ki: ≥ 500 nM

## CC1(C)CN(C(=O)c2ccccc2)CC2(CCCN(CCc3ccccc3)CC2)O1 (stereo not drawn) [Example 34, (2,2-dimethyl-9-phenethyl-1-oxa-4,9-diazaspiro[5.6]dodecan-4-yl)(phenyl)methanone]
  Ki: < 100 nM

## CC(C)N1CC2(CN(CCC(C)(C)C)C2)O[C@@H](C)C1=O [Example 44, (S)-2-(3,3-dimethylbutyl)-8-isopropyl-6-methyl-5-oxa-2,8-diazaspiro[3.5]nonan-7-one]
  Ki: ≥ 500 nM

## CC(C)CN1CCCC2(C1)CN(Cc1ccccc1)CC1(CC1)O2 (stereo not drawn) [Example 81, 12-benzyl-7-isobutyl-4-oxa-7,12-diazadispiro[2.1.5.3]tridecane]
  Ki: < 100 nM

## CCN1CC2(CN(CC(C)(C)C)C2)O[C@H](C)C1=O [Example 75, (R)-8-ethyl-6-methyl-2-neopentyl-5-oxa-2,8-diazaspiro[3.5]nonan-7-one]
  Ki: ≥ 500 nM
